According to PubChem BioAssay (NCI):
Where “and” joins values, the source holds several entries; their conditions need not be identical. Equal entries are not always repeated.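 Values below derive from 48-hour exposures of cells grown in 96-well plates, with endpoints linearly interpolated between the two concentrations bracketing the appropriate inhibition level. The concentration for 50% growth inhibition is given as GI50. At the TGI there is no net growth.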

Experiments:
Test in all cases: growth of human tumour cells (NCI), 48 h
[1] = test system: A549 NSCLC
[2] = test system: ACHN renal
[3] = test system: DU-145 prostate
[4] = test system: HCT-15 colon
[5] = test system: MDA-MB-435
[6] = test system: SK-MEL-2 melanoma
[7] = test system: SK-OV-3 ovarian
[8] = test system: U251 CNS
[9] = test system: RPMI-8226 leukemia
[10] = test system: A498 renal

SMILES	GI50 [1] [µM]	TGI [1]	GI50 [2] [µM]	TGI [2]	GI50 [3] [µM]	TGI [3] [µM]	GI50 [4] [µM]	TGI [4]	GI50 [5] [µM]	TGI [5] [µM]	GI50 [6] [µM]	TGI [6]	GI50 [7] [µM]	TGI [7] [µM]	GI50 [8] [µM]	TGI [8]	TGI [9]	GI50 [10] [µM]	TGI [10]	GI50 [9] [µM]
CN(C)CCCC1(c2ccc(F)cc2)OCc2cc(-c3csc4ccccc34)ccc21 (stereo not drawn)	1.82	3.66 µM	1.64	3 µM	1.72	3.15	1.64	3.07 µM	1.73	3.19	1.83	3.58 µM	1.61	3.12	1.69	3.39 µM				
COc1ccc2cc3n(c(=O)c2c1)CCc1c-3cc(OC)c(OC)c1OC		> 100 µM		> 100 µM				> 100 µM				> 100 µM		> 100		> 100 µM	> 100 µM			
CN(C)[C@@H]1C(=O)C(C(=O)NCc2nc3[nH]cnc(=S)c3[nH]2)=C(O)[C@@]2(O)C(=O)C3=C(O)c4c(O)cccc4[C@@](C)(O)[C@H]3C[C@@H]12	> 100	> 100 µM	16.1	> 100 µM	4.43	> 100	5.66	> 100 µM			> 100	> 100 µM	2	> 100	> 100	> 100 µM	> 100 µM	> 100	> 100 µM	4.35
N#C[Se]CCN1C(=O)c2ccccc2C1=O	2.55	8.93 µM	3.33	11.9 µM	2.58	7.77	3.58	14.7 µM	1.73	3.83	3.71	19.1 µM	3.46	8.72	2.63	8.71 µM	18.5 µM			3.35
FC(F)(F)c1cccc(CNC2CCN(CCc3ccccc3)CC2)c1	40.3	> 100 µM	33.2	> 100 µM	46.3	> 100	23.3	> 100 µM	15.9	30.8	23.5	47.2 µM	38.9	> 100	15.6	35.6 µM	51.5 µM			22.6
Nc1ccccc1C(=O)/C=C/c1ccccc1O		> 100 µM										> 100 µM		> 100		> 100 µM	78.4 µM		> 100 µM	
CC(C)(C)C1CC[C@H]2c3c([nH]c4ccccc34)[C@H]3C(=O)N(c4ccc(F)cc4)C(=O)[C@H]3[C@H]2C1 (stereo partly drawn)		26.1 µM		27.2 µM				> 100 µM				33.2 µM		32		20.8 µM			45.7 µM	
COC1=CC(=O)C(O)=C(CC2(C)C(C)CCC3(C)C2CCCC3(C)C)C1=O (stereo not drawn)		11.6 µM		29.5 µM				14.8 µM				15.5 µM		> 100		13.8 µM	90.1 µM		22.1 µM	
CN(C)c1ccc(/C=N/N=C(\C#N)[S][Sn]([Cl])([c]2ccccc2)[c]2ccccc2)cc1	2.84	9.05 µM	1.72	3.2 µM			1.26	2.73 µM	1.5	3.01	1.74	3.43 µM	2.78		1.78	3.2 µM	5.15 µM	1.96	3.71 µM	1.43
O=C(O)c1cn(C2CC2)c2cc(N3CCN(C(=O)N(c4ccccc4)c4nc(-c5ccccc5)cs4)CC3)c(F)cc2c1=O	0.3	> 100 µM			0.521	> 100	0.308	> 100 µM			0.554	2.92 µM			0.381	> 100 µM		0.028	0.688 µM	
CC(C)(C)C1CCC(O)(c2ccccc2)CC1 (stereo not drawn)		> 100 µM and 89.2 µM		> 100 µM and 59.9 µM				> 100 µM and 52.4 µM				> 100 µM and 28.4 µM		> 100		> 100 µM and 32.3 µM	> 100 µM and 66.6 µM		> 100 µM and 51.4 µM	
CC1(C)CC(=O)C(C(=O)Nc2cccs2)=C(O)C1		> 100 µM		> 100 µM				> 100 µM				> 100 µM		> 100		> 100 µM	> 100 µM		88.9 µM	
C=CCN(CC=C)Cc1c[nH]c2ccccc12	31.5	> 100 µM	36.3	> 100 µM			32.8	> 100 µM	10.9	32.9	15.3	38.3 µM	> 100	> 100	13.2	31.2 µM	> 100 µM			17.8
CNS(=O)(=O)NNS(=O)(=O)c1ccc(C)cc1		> 100 µM		> 100 µM								> 100 µM		> 100			> 100 µM		> 100 µM	
C#CCCCCCC(=O)N[C@H]1C=C[C@@H]2/C=C(C)/C=C/[C@@H](C)[C@H]([C@H](C)[C@H](O)[C@@H](C)NC(C)=O)OC(=O)/C=C/C=C(C)\C=C\[C@]2(C)C1	< 0.004	> 40 µM	< 0.004	> 40 µM	0.0157	> 40	0.00804	> 40 µM			4.87	> 40 µM	< 0.004	> 40	< 0.004	> 40 µM	4.61 µM	0.0046	0.0383 µM	< 0.004
CN(C)c1ccc(/C=c2/sc3nc(=O)c(-c4ccccc4NC(=O)C(F)(F)F)nn3c2=O)cc1		> 100 µM		> 100 µM								> 100 µM		> 100		> 100 µM				
CC(C)(C)c1ccc(OCCOCCOc2ccc(C(C)(C)C)cc2S(N)(=O)=O)c(S(N)(=O)=O)c1		> 100 µM		> 100 µM				> 100 µM				> 100 µM		> 100		> 100 µM	> 100 µM		> 100 µM	
N#Cc1c(CC(=O)O)cc(=O)n2c1[nH]c1ccccc12		> 100 µM		> 100 µM				> 100 µM				> 100 µM		> 100		> 100 µM	> 100 µM		> 100 µM	
O=C(/C=C(\[O-])c1ccccc1)CCCCCCC(=O)/C=C(\[O-])c1ccccc1.O=C(/C=C(\[O-])c1ccccc1)CCCCCCC(=O)/C=C(\[O-])c1ccccc1.O=C(/C=C(\[O-])c1ccccc1)CCCCCCC(=O)/C=C(\[O-])c1ccccc1.[Y+3].[Y+3]	> 50	> 50 µM	40.3	> 50 µM							> 50	> 50 µM	> 50	> 50	25.7	> 50 µM	> 50 µM	> 50	> 50 µM	44.8
O=[N+]([O-])c1ccc(/C=C(/c2ccc([N+](=O)[O-])o2)S(=O)(=O)c2ccccc2)cc1		> 100 µM		> 100 µM		> 100		88.7 µM		> 100		> 100 µM		> 100		> 100 µM	31.4 µM			

SMILES	GI50 [1] [µM]	TGI [1]	GI50 [2] [µM]	TGI [2]	GI50 [3] [µM]	TGI [3] [µM]	GI50 [4] [µM]	TGI [4]	GI50 [5] [µM]	TGI [5] [µM]	GI50 [6] [µM]	TGI [6]	GI50 [7] [µM]	TGI [7] [µM]	GI50 [8] [µM]	TGI [8]	TGI [9]	GI50 [10] [µM]	TGI [10]	GI50 [9] [µM]
CCCCCNC(=O)CCCCCCCCCCCNC(=O)CCCCCCCCCCN1C=CC(=CC=C2C=CC(=O)C=C2)C=C1		> 100 µM		> 100 µM				> 100 µM						> 100		> 100 µM	> 100 µM		> 100 µM	
O=C(CC1(O)C(=O)Nc2c(Cl)ccc(Cl)c21)c1ccc(Cl)cc1 (stereo not drawn)		> 100 µM		38.7 µM				> 100 µM				86.4 µM		90.9		84.5 µM	55.1 µM		82.5 µM	
COC(=O)C1CC(=O)O[C@H]1c1ccc(OC)c(OC)c1 (stereo partly drawn)		> 100 µM		> 100 µM				> 100 µM				> 100 µM		> 100		> 100 µM	> 100 µM		> 100 µM	
O=C1c2ccccc2C2(O)N(c3ccccc3)C(=S)N(c3ccccc3)C12O (stereo not drawn)		> 100 µM		> 100 µM				> 100 µM				> 100 µM		> 100		> 100 µM	> 100 µM		> 100 µM	
NS(=O)(=O)c1cc2c(cc1Cl)NCNS2(=O)=O		> 100 µM		> 100 µM		> 100		> 100 µM		> 100		> 100 µM				> 100 µM	> 100 µM			
CCCCCCCCCCN=C(N)c1ccc(N2CCN(c3ccc(C(N)=NCCCCCCCCCC)cc3)CC2)cc1	3.32	> 50 µM	15.7	> 50 µM	3.3	26.1	14.1	> 50 µM	2.83	12.6	7.74	> 50 µM	4.08	> 50	2.44	> 50 µM	> 50 µM			1.96
COc1ccc(C(C)Nc2cc(OC)c(OC)c(OC)c2)cc1 (stereo not drawn)		> 100 µM		> 100 µM				> 100 µM				81.1 µM		> 62.5		10 µM	> 100 µM		> 100 µM	
CN(C)c1ccc(/C=C2\CCc3ccccc3C2=O)cc1Br		> 100 µM		> 100 µM				> 100 µM				> 100 µM		> 100		> 100 µM	72.9 µM			
CC(=O)NC(CCCNC(=O)OCc1ccccc1)C(=O)NCc1ccccc1 (stereo not drawn)		> 100 µM		> 100 µM				> 100 µM				> 100 µM		> 100		> 100 µM	> 100 µM		> 100 µM	
N#CC1(CCCCl)CCCCC1		> 100 µM		> 100 µM				> 100 µM				> 100 µM		> 100		> 100 µM			> 100 µM	
CC(C)CCCC(C)C1CCC2C3CC([N+](=O)[O-])=C4CC(O)CCC4(C)C3CCC12C (stereo not drawn)		47.1 µM		> 100 µM				33.6 µM				29 µM				30.4 µM	46.9 µM		40.6 µM	
Cc1ccccc1NC(=O)CC(=O)NNCC(=O)Nc1nnc(-c2ccccc2)s1		> 100 µM		> 100 µM				> 100 µM				> 100 µM				> 100 µM	75.1 µM		> 100 µM	
COC(=O)N/N=C(\C)c1sc(-c2nc(C)c(/C(C)=N/NC(=O)OC)s2)nc1C		> 100 µM		> 100 µM				> 100 µM				> 100 µM		> 100		> 100 µM	> 100 µM		> 100 µM	
CC(=O)O[C@H]1C[C@@H]2[C@@]3(C)CC[C@H]4C[C@@]4(C)[C@@H]3CC[C@@]2(C)C2=CCC3=C(COC3=O)[C@]21C	20.8	44.4 µM	21.5	43.9 µM	15.6	38.5	21	56.1 µM	22.6	46.9	36.3	> 100 µM	32.6	> 100	17.4	36.3 µM	50.2 µM			17.9
CCN1CCN(CC(=O)Nc2nc3ccc(NCc4ccc(Br)cc4)cc3s2)CC1			2.03	4.4 µM	5.14	> 100			1.69	3.23	1.95	3.63 µM			1.92	3.79 µM	4.07 µM	1.76	3.46 µM	1.54
CCOC(=O)C1C(NC(N)=O)N(Cc2ccccc2)C(=O)N1Cc1ccccc1 (stereo not drawn)		> 100 µM		> 100 µM				> 100 µM				> 100 µM		> 100		32 µM	> 100 µM			
O=[N+]([O-])c1ccc(/C=C/c2ccc(/C=C/c3ccc([N+](=O)[O-])cc3[N+](=O)[O-])cc2)c([N+](=O)[O-])c1		> 100 µM		> 100 µM				> 100 µM				> 100 µM		> 100		> 100 µM	> 100 µM		> 100 µM	
ON1CCc2c([nH]c3ccccc23)C1c1ccc(Cl)cc1 (stereo not drawn)		> 100 µM		> 100 µM								64.5 µM		> 100		29.8 µM	84.3 µM		> 100 µM	
C/C(=C\c1ccccc1)C(O)C(=O)c1nc2ccc(Cl)cc2[nH]c1=O (stereo not drawn)		> 100 µM		> 100 µM				> 100 µM				> 100 µM		> 100		> 100 µM	> 100 µM		> 100 µM	
